Assay results taken from US6716883B1, “Composition useful to treat periodontal disease” (priority 1998, dated 2004).

What was measured:
[1] = system: rat bone marrow cells (RBMC); test: APA in primary rat bone marrow cell (RBMC) bone formation system; type: cell-based
From the text: Rat bone marrow cells were derived from femoral bones removed from adult male Wistar rats as described previously (Maniatopoulos et al., Cell Tissue Res, 1988, 254(2):317-330). These cells, grown in the presence of dexamethasone, vitamin C and b-glycerophosphate, differentiated into osteoblasts as shown by increases in APA and the production of mineralized bone nodules within 12-14 days. For the purposes of this investigation, we analyzed 10-16 day cultures for APA, as this was a reliable marker for osteoblastic differentiation in this system.

[2] = system: chick periosteal osteogenesis (CPO) cultures; test: Histological evaluation of bone formation in chick periosteal osteogenesis (CPO) cultures; type: cell-based
Protocol: In this experiment, the chick periosteal osteogenesis (CPO) model was used to determine if bone loss is induced by dioxin. The CPO model has been described in detail previously (Nijweide, Proc. Kon. Ned. Akad. Wet. 1975. C78:410-417) and was prepared for the purposes of this experiment as set out below.
Following sacrifice, two triangular calvarial explants were removed by cutting along the central suture, transversely along the posterior suture and laterally above the eye in 17-day-old embryonic chicks. The ectocranial periosteum (outer curved surface) was peeled off using forceps under microscopic magnification and folded so that the surface originally facing bone was in apposition to itself as described previously (Tenenbaum et al., Calcif Tissue Int. 34:76-79). The folded explant was then placed on a Millipore filter (HA 0.45 μm), which was transferred onto a stainless steel grid resting in the center well of an organ culture dish (Falcon Plastics, Lincoln Park, N.J., USA) that was filled with culture media to a level such that the culture was supported at the gas-liquid interface (˜1.5 ml of media). Three cultures were placed in each dish which was then covered and incubated at 37° C. in a humidified atmosphere containing 5% CO2 in air. Media changes occurred on days 2 and 4, and the medium was comprised of BGJb medium (Fitton-Jackson Modification) with L-glutamine (Gibco, Grand Island, N.Y., USA) and supplemented with 2% antibiotic (10,000 units/ml Penicillin G sodium, 10,000 μg/ml Streptomycin sulfate in 0.85% saline) (Gibco), 10% fetal calf serum (Gibco), 10^−7M dexamethasone (Sigma, St. Louis, Mo., USA), 10 mM β-glycerophosphate, and 300 μg/ml L-ascorbate (Gibco).
For the purposes of this investigation, the effects of a potent aryl hydrocarbon, TCDD (2,3,7,8-tetrachlorodibenzo-p-dioxin or dioxin) on the early events occurring during osteogenesis were determined. The CPO model traverses a number of phases of osteogenesis. […]

[3] = system: chick periosteal osteogenesis (CPO) cultures; test: Newly synthesized 14C-labeled collagen type I in CPO cultures; type: cell-based
Protocol: For the purposes of this investigation, the effects of a potent aryl hydrocarbon, TCDD (2,3,7,8-tetrachlorodibenzo-p-dioxin or dioxin) on the early events occurring during osteogenesis were determined. The CPO model traverses a number of phases of osteogenesis. Therefore, it was possible to design temporal or “window” experiments in order to determine the phases of osteogenesis that were sensitive to TCDD and/or resveratrol. […] All cultures were maintained for the entire 6-day period. The compounds were administered over four different temporal phases, as outlined below in the time-line diagram: a) days 0-6; b) days 0-2; c) days 2-4 or d) days 4-6 (Note: all cultures were stopped at 6 days). Results were compared to e) vehicle alone over days 0-6. [drawing 1]
Radiolabeled collagen was measured in CPO cultures incubated with ^14C-glycine (Amersham, 59 mCi/mMole) at a concentration of 10 μci/ml media in each group over days 4-6. The cultures were hydrolyzed in 0.1 ml of 0.1N HCl and vortexed. After 15 minutes, the supernatant was removed and saved in a 2 ml eppendorf tube. The culture was transferred to a 0.5 ml eppendorf tube containing 0.1 ml of pepsin (50 μg/ml in 0.1% glacial acetic acid) for further digestion of labeled collagen. These were maintained in a 15° C. water bath for 5 hours, vortexing the samples every hour. The supernatant was transferred to a new 0.5 ml eppendorf tube and was then lyophilized overnight. The amount of radiolabeled collagen was determined by gel electrophoresis as described hereunder. The lyophilized samples were reconstituted with 0.1 ml of a solution made of 70% sample buffer (10 mM Tris.HCl and 1 mM EDTA, pH 8.0) (Sigma-Aldrich Canada Ltd., Oakville, Canada), 2.5% SDS (Sigma), 5% β-mercaptoethanol (Sigma) and 0.01% bromophenol-blue (Sigma). […]
Fluorography was used to analyze the amount of newly synthesized ^14C-labeled collagen in each sample. […] The intensity of the resultant bands on the film was quantified using a laser densitometer to give a measure of the amount of newly synthesized collagen in each sample.

[4] = system: rat bone marrow cell line (RBMCL); test: APA in rat bone marrow cell line (RBMCL); type: cell-based
[5] = system: rat bone marrow cultures; test: Mineral levels in rat bone marrow cultures treated with BaP; type: cell-based; settings: resveratrol and BaP together
[6] = system: IL-1 Beta; settings: Casper et al. 1999; cited from earlier work
[7] = system: rat bone marrow cultures; test: APA in rat bone marrow cultures treated with BaP; type: cell-based; settings: resveratrol (10^−6M) added with BaP
Protocol: In this experiment, the effects of the aryl hydrocarbon, benzo-a-pyrene (BaP) on the early events occurring during osteogenesis were determined. Ten-day old rat bone marrow cultures were treated with increasing concentrations of BaP. The effect of this treatment was monitored by APA as set out above.

[8] = resveratrol 4×10^−8M to 3×10^−5M with TCDD

| SMILES | inhibition at 0.001 µM ([1]; Rattus norvegicus, Bone marrow cell, read-out: inhibition of osteodifferentiation as measured by APA, compared to alcohol-treated control) [%] | bone formation (histology) ([2]; TCDD-treated CPO cultures, FIG. 1B) | decrease in newly synthesized collagen type I levels ([3]; 10^−9M TCDD alone, p>0.05) | inhibition of osteogenic differentiation (APA) ([4]; TCDD, 6 day cultures, in comparison to CPO and RBMC) | abrogation of TCDD effects on APA ([1]; resveratrol 10^−6 molar in alcohol, added together or singly between days 4-10, FIG. 9) | effect on APA ([1]; resveratrol alone) | reversal of TCDD effect on bone formation (histology) ([2]; cultures treated with both TCDD and resveratrol, FIG. 1D) | bone formation (histology) ([2]; resveratrol alone, FIG. 1C) | reversal of BaP effects on mineral levels ([5]; BaP 10^−8M) | reversal of BaP effects on mineral levels ([5]; higher concentrations of BaP) | newly synthesized collagen type I levels ([3]; 10^−6M resveratrol alone, compared to vehicle) | newly synthesized collagen type I level ([3]; co-treatment with TCDD and resveratrol, versus TCDD alone) | APA in comparison to control [4, 8] | inhibition of TCDD-mediated inhibition of osteoblastic differentiation (APA) [4, 8] | induction of IL-1 Beta by AhR ligands [6] | reversal of BaP's inhibitory effect on alkaline phosphatase [7] |
| --- | --- | --- | --- | --- | --- | --- | --- | --- | --- | --- | --- | --- | --- | --- | --- | --- |
| Clc1cc2c(cc1Cl)Oc1cc(Cl)c(Cl)cc1O2 [TCDD, 2,3,7,8-tetrachlorodibenzo-p-dioxin] | ~50 | obvious changes in bone formation | about 30% | lower dose of TCDD was able to inhibit osteogenic differentiation | – | – | – | – | – | – | – | – | – | – | – | – |
| Oc1ccc(C=Cc2cc(O)cc(O)c2)cc1 [resveratrol, 3,5,4′-trihydroxystilbene] | – | – | – | – | completely abrogated the effects of TCDD | no significant effects | complete reversal of the TCDD effect | large deposits of bone similar to the control cultures | complete reversal | partial reversal | no effect | not significantly different | appeared to stimulate APA | able to inhibit TCDD-mediated inhibition of osteoblastic differentiation | prevent the induction | reversal of BaP's inhibitory effect |
